From ChEMBL document CHEMBL4725251, “Structure-activity relationships of tubulysin analogues” (Bioorg Med Chem Lett, 2020)

Tests used:
DEL = assay: Antiproliferative against human DEL cells incubated for 96 hrs by cellTiter-Glo assay; format: functional, cell-based
Tubulin (Homo sapiens) = Tubulin (Homo sapiens) (UniProt P68371+Q9H4B7+P0DPH7+P68366+Q13509+Q71U36+P04350+Q3ZCM7+P07437+P68363+Q9BQE3+Q6PEY2+Q13885+Q9BVA1+Q9BUF5); assay: Binding affinity to tubulin (unknown origin) by fluorescence polarization displacement assay; format: protein-complex assay
[1] = Antiproliferative against human DEL/BVR cells incubated for 96 hrs by cellTiter-Glo assay; format: functional, cell-based
L-540 = assay: Antiproliferative against human L540cy cells incubated for 96 hrs by cellTiter-Glo assay; format: functional, cell-based; conditions: L-540, 96 h
L-428 = assay: Antiproliferative against human L428 cells incubated for 96 hrs by cellTiter-Glo assay; format: functional, cell-based; conditions: L-428, 96 h

SMILES	EC50 (DEL) [nM]	relative binding affinity (RBA) (Tubulin (Homo sapiens))	EC50 [1] [nM]	EC50 (L-540) [nM]	EC50 (L-428) [nM]
CCO[C@H](C[C@H](C(C)C)N(C)C(=O)[C@@H](NC(=O)[C@@]1(C)CCCN1C)[C@@H](C)CC)c1nc(C(=O)N[C@@H](Cc2ccccc2)C[C@H](C)C(=O)O)cs1	0.3	0.38	2	1	
CC[C@H](C)[C@H](NC(=O)[C@H]1CCCCN1C)C(=O)N(C)[C@H](C[C@@H](OC(C)=O)c1nc(C(=O)N[C@@H](Cc2ccccc2)C[C@H](C)C(=O)O)cs1)C(C)C				0.08	0.04
CCC(=O)O[C@H](C[C@H](C(C)C)N(C)C(=O)[C@@H](NC(=O)[C@H]1CCCCN1C)[C@@H](C)CC)c1nc(C(=O)N[C@@H](Cc2ccccc2)C[C@H](C)C(=O)O)cs1		0.97		0.06	0.04
CCO[C@H](C[C@H](C(C)C)N(C)C(=O)[C@@H](NC(=O)[C@H]1CCCCN1C)[C@@H](C)CC)c1nc(C(=O)N[C@@H](Cc2ccccc2)C[C@H](C)C(=O)O)cs1	0.04	0.27	1	0.4	0.13
CCO[C@H](C[C@H](C(C)C)N(C)C(=O)[C@H](C)NC(=O)[C@H]1CCCCN1C)c1nc(C(=O)N[C@@H](Cc2ccccc2)C[C@H](C)C(=O)O)cs1	21	0.03	420	110	
CCO[C@H](C[C@H](C(C)C)N(C)C(=O)[C@@H](NC(=O)[C@H]1CCCCN1C)C(CC)CC)c1nc(C(=O)N[C@@H](Cc2ccccc2)C[C@H](C)C(=O)O)cs1	0.4	0.2	4	1	
C=CCO[C@H](C[C@H](C(C)C)N(C)C(=O)[C@@H](NC(=O)[C@H]1CCCCN1C)[C@@H](C)CC)c1nc(C(=O)N[C@@H](Cc2ccccc2)C[C@H](C)C(=O)O)cs1		0.88		0.12	0.15
C#CCO[C@H](C[C@H](C(C)C)N(C)C(=O)[C@@H](NC(=O)[C@H]1CCCCN1C)[C@@H](C)CC)c1nc(C(=O)N[C@@H](Cc2ccccc2)C[C@H](C)C(=O)O)cs1		0.59		0.17	0.41
CCCC(=O)O[C@H](C[C@H](C(C)C)N(C)C(=O)[C@@H](NC(=O)[C@H]1CCCCN1C)[C@@H](C)CC)c1nc(C(=O)N[C@@H](Cc2ccccc2)C[C@H](C)C(=O)O)cs1		0.52		0.04	0.05
CCO[C@H](C[C@H](C(C)C)N(C)C(=O)[C@@H](NC(=O)C1CN(C)CCN1C)[C@@H](C)CC)c1nc(C(=O)N[C@@H](Cc2ccccc2)C[C@H](C)C(=O)O)cs1 (mixture of isomers)				> 1000	
CCO[C@H](C[C@H](C(C)C)N(C)C(=O)[C@@H](NC(=O)[C@H]1CCCCN1C)[C@H](C)OC(C)(C)C)c1nc(C(=O)N[C@@H](Cc2ccccc2)C[C@H](C)C(=O)O)cs1	17	0.06	123	81	
CCCO[C@H](C[C@H](C(C)C)N(C)C(=O)[C@@H](NC(=O)[C@H]1CCCCN1C)[C@@H](C)CC)c1nc(C(=O)N[C@@H](Cc2ccccc2)C[C@H](C)C(=O)O)cs1		0.68		0.13	0.39
CCO[C@H](C[C@H](C(C)C)N(C)C(=O)CNC(=O)[C@H]1CCCCN1C)c1nc(C(=O)N[C@@H](Cc2ccccc2)C[C@H](C)C(=O)O)cs1	3300		9600	4600	
CC[C@H](C)[C@H](NC(=O)[C@H]1CCCCN1C)C(=O)N(C)[C@H](C[C@@H](OC(=O)CC(C)C)c1nc(C(=O)N[C@@H](Cc2ccccc2)C[C@H](C)C(=O)O)cs1)C(C)C		0.26		0.06	0.11
CCO[C@H](C[C@H](C(C)C)N(C)C(=O)[C@@H](NC(=O)[C@H]1CCCCN1C)[C@H](C)OC)c1nc(C(=O)N[C@@H](Cc2ccccc2)C[C@H](C)C(=O)O)cs1	1	0.001	17	5	
CCO[C@H](C[C@H](C(C)C)N(C)C(=O)[C@@H](NC(=O)[C@H]1CCCCN1C)[C@@H](C)OC)c1nc(C(=O)N[C@@H](Cc2ccccc2)C[C@H](C)C(=O)O)cs1	1	0.03	66	6	
CCO[C@H](C[C@H](C(C)C)N(C)C(=O)[C@@H](NC(=O)[C@H]1CCCCN1C)C1CCCCC1)c1nc(C(=O)N[C@@H](Cc2ccccc2)C[C@H](C)C(=O)O)cs1	0.2	0.4	6	1	
CC[C@H](C)[C@H](NC(=O)[C@H]1CCCCN1C)C(=O)N(C)[C@H](C[C@@H](OCC(C)=O)c1nc(C(=O)N[C@@H](Cc2ccccc2)C[C@H](C)C(=O)O)cs1)C(C)C		0.27		0.6	1
C=C(C)CO[C@H](C[C@H](C(C)C)N(C)C(=O)[C@@H](NC(=O)[C@H]1CCCCN1C)[C@@H](C)CC)c1nc(C(=O)N[C@@H](Cc2ccccc2)C[C@H](C)C(=O)O)cs1		0.43		0.06	0.12
CCO[C@H](C[C@H](C(C)C)N(C)C(=O)[C@@H](NC(=O)[C@H]1CCCCN1C)[C@@H](C)OC(C)(C)C)c1nc(C(=O)N[C@@H](Cc2ccccc2)C[C@H](C)C(=O)O)cs1	0.1	0.83	0.4	0.1	
CCO[C@H](C[C@H](C(C)C)N(C)C(=O)[C@@H](NC(=O)C12CC(CCN1C)C2)[C@@H](C)CC)c1nc(C(=O)N[C@@H](Cc2ccccc2)C[C@H](C)C(=O)O)cs1	0.2	0.23	2	1	
CCO[C@H](C[C@H](C(C)C)N(C)C(=O)[C@@H](NC(=O)C1CCC(F)(F)CN1C)[C@@H](C)CC)c1nc(C(=O)N[C@@H](Cc2ccccc2)C[C@H](C)C(=O)O)cs1 (mixture of isomers)	9	0.07	66	15	
CC[C@H](C)[C@H](NC(=O)[C@H]1CCCCN1C)C(=O)N(C)[C@H](C[C@@H](OC(=O)C(C)C)c1nc(C(=O)N[C@@H](Cc2ccccc2)C[C@H](C)C(=O)O)cs1)C(C)C		0.36		0.1	0.12
CCO[C@H](C[C@H](C(C)C)N(C)C(=O)[C@@H](NC(=O)[C@H]1[C@@H]2CC[C@@H](C2)N1C)[C@@H](C)CC)c1nc(C(=O)N[C@@H](Cc2ccccc2)C[C@H](C)C(=O)O)cs1	2	0.08	15	8	
CCO[C@H](C[C@H](C(C)C)N(C)C(=O)[C@@H](NC(=O)[C@H]1CCCCN1C)C1CCCC1)c1nc(C(=O)N[C@@H](Cc2ccccc2)C[C@H](C)C(=O)O)cs1	0.1	0.45	1	0.2	
CCO[C@H](C[C@H](C(C)C)N(C)C(=O)[C@@H](NC(=O)[C@H]1CCCCN1C)C1CCC1)c1nc(C(=O)N[C@@H](Cc2ccccc2)C[C@H](C)C(=O)O)cs1	13	0.03	89	24	
CCO[C@H](C[C@H](C(C)C)N(C)C(=O)[C@@H](NC(=O)[C@H]1CCCCN1C)[C@H](C)CC)c1nc(C(=O)N[C@@H](Cc2ccccc2)C[C@H](C)C(=O)O)cs1	3	0.007	61	13	
CC[C@H](C)[C@H](NC(=O)[C@H]1CCCCN1C)C(=O)N(C)[C@H](C[C@@H](OC)c1nc(C(=O)N[C@@H](Cc2ccccc2)C[C@H](C)C(=O)O)cs1)C(C)C		0.42		0.12	0.48
CC[C@H](C)[C@H](NC(=O)[C@H]1CCCCN1C)C(=O)N(C)[C@H](C[C@@H](OCc1ccccc1)c1nc(C(=O)N[C@@H](Cc2ccccc2)C[C@H](C)C(=O)O)cs1)C(C)C		0.07		0.4	0.57
